Patent US20260274819A1, “ULK1 INHIBITOR, PREPARATION METHOD THEREFOR AND USE THEREOF” (DOVETREE MEDICINES UNUS, INC., priority 2023, published 2026)

These compounds were tested against T1, ULK1 (Homo sapiens, UniProt O75385) (assay: Inhibition of ULK1 protein activity (ADP-Glo method)). Conditions: ULK1 enzyme, ATP and MBP substrate, 60 min room temperature.
T1 construct: purchased Promega V3521
T1 sequence (O75385 1-649 limits assumed): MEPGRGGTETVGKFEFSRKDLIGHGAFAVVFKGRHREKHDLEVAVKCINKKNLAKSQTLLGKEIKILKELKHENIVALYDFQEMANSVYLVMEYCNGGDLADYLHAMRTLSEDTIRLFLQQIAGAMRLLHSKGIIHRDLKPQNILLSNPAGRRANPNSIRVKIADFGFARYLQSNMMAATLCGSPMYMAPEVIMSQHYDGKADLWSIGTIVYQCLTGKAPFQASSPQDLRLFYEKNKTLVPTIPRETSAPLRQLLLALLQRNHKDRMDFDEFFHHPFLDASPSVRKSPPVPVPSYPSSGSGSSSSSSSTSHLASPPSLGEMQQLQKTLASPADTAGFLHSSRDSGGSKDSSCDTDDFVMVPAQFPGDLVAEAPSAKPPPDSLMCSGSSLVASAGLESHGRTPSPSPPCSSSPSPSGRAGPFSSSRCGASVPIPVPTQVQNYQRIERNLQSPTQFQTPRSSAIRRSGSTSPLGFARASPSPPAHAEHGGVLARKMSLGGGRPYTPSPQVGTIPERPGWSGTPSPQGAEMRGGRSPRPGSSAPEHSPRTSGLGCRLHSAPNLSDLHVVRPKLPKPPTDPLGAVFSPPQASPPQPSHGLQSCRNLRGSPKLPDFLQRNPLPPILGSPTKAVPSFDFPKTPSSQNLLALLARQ
Format: biochemical
Experimental: In this experiment, the inhibitory effect of a compound on the phosphorylation function of ULK1 was detected by ADP-Glo method. The inhibitory effect of the compound of the present disclosure on the ULK1 target was evaluated based on IC50.
Compound formulation: Using an ECHO (Beckman, ECHO650), the compound was serially diluted 3-fold in DMSO in a 384-well plate (PE, 6007290). A total of 10 concentration points were set, with the maximum concentration of the compound being 10 μM, and 50 nL per well. Positive control wells and negative control wells were added with 50 nL DMSO, respectively.
Reaction process: A 32 nM of ULK1 (Promega, V3521) solution was formulated, and 2.5 μL/well was transferred to the compound test wells and the negative control wells (NC). 2.5 μL/well of 1× Assay buffer was added to the positive control wells (PC). A mixed solution of 100 μM of ATP and 1.86 μM of MBP was formulated, and 2.5 μL/well was transferred to the reaction plate. After centrifugation, the reaction was initiated and incubated at room temperature for 60 min. After the reaction was completed, 5 μL/well of ADP-Glo Reagent (Promega, V9102) was added to the reaction plate. After centrifugation, the reaction was incubated at room temperature for 40 minutes. Finally, 10 μL/well of Kinase Detection Buffer was added, followed by centrifugation and incubation at room temperature for 30 min. The chemiluminescence value was read using Envision (PE, Envision2105).
Assay buffer: a reaction buffer; and Kinase Detection buffer: a detection buffer, both were taken from the ADP-Glodetection kit, purchased from Promega, model V9102. 3. Data analysis
The inhibition ratio of a compound on ULK1 activity was calculated using the following formula:
Inhibition ratio=(sample signal value−negative control signal value)/(positive control signal value−negative control signal value)×100%. The dose-effect curve was fitted using the log(inhibitor) vs. response -Variable slope of the analysis software GraphPad Prism 8, thereby affording the IC50 value of each compound for enzyme activity.

First: Cc1ccn(C2CN(c3nc(Nc4ccc(N5CCN(C)CC5)cc4C4CC4)ncc3C(F)(F)F)C2)n1 [Example 2]
Second: Cc1ccn(C2CCN(c3nc(Nc4ccc(N5CCN(C)CC5)cc4C4CC4)ncc3C(F)(F)F)C2)n1 (stereo not shown) [Example 41]
The IC50 of the first is higher: 0.1 to 1 µM for the first, under 0.1 µM for the second. The second is the more potent here.

`CN1CCN(c2ccc(Nc3ncc(C(F)(F)F)c(N4CCN(C(=O)C5CCC5)CC4)n3)c(C3CC3)c2)CC1` [Example 3] and `CN1CCN(c2ccc(Nc3ncc(C(F)(F)F)c(N4CCCN(C(=O)C5CCC5)CC4)n3)c(C3CC3)c2)CC1` [Example 9] fall in the same range of IC50: 0.1 to 1 µM for the first, 0.1 to 1 µM for the second.

First: CN1CCN(c2ccc(Nc3ncc(C(F)(F)F)c(N4CCC(NC(=O)C5CCC5)CC4)n3)c(C3CC3)c2)CC1 [Example 4]
Second: CN1CCN(c2ccc(Nc3ncc(C(F)(F)F)c(N4CCC(N5CCCC5=O)CC4)n3)c(C3CC3)c2)CC1 [Example 6]
The IC50 of the first is lower: 0.1 to 1 µM for the first, over 1 µM for the second.

`CN1CCN(c2ccc(Nc3ncc(C(F)(F)F)c(NC(=O)C4CCC4)n3)c(C3CC3)c2)CC1` [Example 7] and `CN1CCN(c2ccc(Nc3ncc(C(F)(F)F)c(CCNC(=O)C4CCC4)n3)c(C3CC3)c2)CC1` [Example 27] fall in the same range of IC50: 0.1 to 1 µM for the first, 0.1 to 1 µM for the second.

Compared with `CN1CCN(c2ccc(Nc3ncc(C(F)(F)F)c(N4CCC(N5CCCCC5=O)CC4)n3)c(C3CC3)c2)CC1` [Example 8], `CN1CCN(c2ccc(Nc3ncc(C(F)(F)F)c(N4CCC(CN5CCCCC5=O)C4)n3)c(C3CC3)c2)CC1` (stereo not shown) [Example 12] is lower in IC50: over 1 µM for the first, 0.1 to 1 µM for the second.

`CN1CCN(c2ccc(Nc3ncc(C(F)(F)F)c(NC4CCN(C)C(=O)C4)n3)c(C3CC3)c2)CC1` (stereo not shown) [Example 10] and `CN1CCN(c2ccc(Nc3ncc(C(F)(F)F)c(N[C@H]4CCN(C)C4=O)n3)c(C3CC3)c2)CC1` [Example 11] fall in the same range of IC50: 0.1 to 1 µM for the first, 0.1 to 1 µM for the second.

First: Cc1ccnn1C1CCN(c2nc(Nc3ccc(N4CCN(C)CC4)cc3C3CC3)ncc2C(F)(F)F)CC1 [Example 13]
Second: CN1CCC(n2cc(-c3nc(Nc4ccc(N5CCN(C)CC5)cc4C4CC4)ncc3C(F)(F)F)cn2)CC1 [Example 33]
The IC50 of the first is higher: 0.1 to 1 µM for the first, under 0.1 µM for the second.

`CN1CCN(c2nc(Nc3cccc(CN4CCOCC4)c3)ncc2C(F)(F)F)CC1=O` [Example 16] and `CN1CCN(c2nc(Nc3cccc(NC(=O)N4CCCC4)c3)ncc2C(F)(F)F)CC1=O` [Example 22] cannot be ordered by IC50: over 1 µM for the first, over 1 µM for the second.

First: CN1CCN(c2ccc(Nc3ncc(C(F)(F)F)c(OC4CCN(C)C(=O)C4)n3)c(C3CC3)c2)CC1 (stereo not shown) [Example 17]
Second: CN1CCN(c2ccc(Nc3ncc(C(F)(F)F)c(OC4CCN(C(=O)C5CCC5)CC4)n3)c(C3CC3)c2)CC1 [Example 18]
The IC50 of the first is lower: under 0.1 µM for the first, 0.1 to 1 µM for the second.

Compared with `CN1CCN(c2nc(Nc3cccc(Nc4ccc(N)cc4)c3)ncc2C(F)(F)F)CC1=O` [Example 21], `CC(=O)Nc1ccc(Nc2cccc(Nc3ncc(C(F)(F)F)c(N4CCN(C)C(=O)C4)n3)c2)cc1` [Example 43] is higher in IC50: 0.1 to 1 µM for the first, over 1 µM for the second. The first is the more potent here.

Compared with `CN1CCC2(CCN(c3nc(Nc4ccc(N5CCOCC5)cc4)ncc3C(F)(F)F)CC2)C1` [Example 23], `CN1CCN(c2ccc(Nc3ncc(C(F)(F)F)c(N4CCC5(CC4)CN(C)C5)n3)c(C3CC3)c2)CC1` [Example 36] is higher in IC50: under 0.1 µM for the first, over 1 µM for the second.

`CN1CCN(c2ccc(Nc3ncc(C(F)(F)F)c(N4CC5(CCN(C)C5)C4)n3)c(C3CC3)c2)CC1` [Example 25] and `CN1CCN(c2ccc(Nc3ncc(C(F)(F)F)c(N4CCC5(CN(C)C5)C4)n3)c(C3CC3)c2)CC1` [Example 38] cannot be ordered by IC50: under 0.1 µM for the first, under 0.1 µM for the second.

Compared with `CN1CCN(c2ccc(Nc3ncc(C(F)(F)F)c(CCN4CCCCC4=O)n3)c(C3CC3)c2)CC1` [Example 28], `CN1CCN(c2ccc(Nc3ncc(C(F)(F)F)c(COCCN4CCCCC4=O)n3)c(C3CC3)c2)CC1` [Example 42] is higher in IC50: 0.1 to 1 µM for the first, over 1 µM for the second.

First: CN1CCC(COc2ccc(Nc3ncc(C(F)(F)F)c(OCCCN4CCCCC4=O)n3)c(C3CC3)c2)CC1 [Example 34]
Second: CN1CC[C@@H](Oc2ccc(Nc3ncc(C(F)(F)F)c(OCCCN4CCCCC4=O)n3)c(C3CC3)c2)C1 [Example 46]
The IC50 of the first is higher: 0.1 to 1 µM for the first, under 0.1 µM for the second. The second is the more potent here.

`CN1CCN(c2ccc(Nc3ncc(C(F)(F)F)c(N4CCC5(CCNC5=O)CC4)n3)c(C3CC3)c2)CC1` [Example 35] and `CN1CCN(c2ccc(Nc3ncc(C(F)(F)F)c(N4CC5(CCN(C)CC5)C4)n3)c(C3CC3)c2)CC1` [Example 48] cannot be ordered by IC50: under 0.1 µM for the first, under 0.1 µM for the second.

Compared with `CN1CCN(c2ccc(Nc3ncc(C(F)(F)F)c(N4C5CCC4C(=O)N(C)C5)n3)c(C3CC3)c2)CC1` (stereo not shown) [Example 39], `CN1CCN(c2ccc(Nc3ncc(C(F)(F)F)c(N4CCN(C5CCCNC5)C(=O)C4)n3)c(C3CC3)c2)CC1` (stereo not shown) [Example 45] is higher in IC50: under 0.1 µM for the first, 0.1 to 1 µM for the second. The first is the more potent here.

`CN1CCN(c2ccc(Nc3ncc(C(F)(F)F)c(NCCCc4ccccc4C#N)n3)c(C3CC3)c2)CC1` [Example 44] and `CN1CCN(c2ccc(Nc3ncc(C(F)(F)F)c(OCCCC(=O)N4CCOCC4)n3)c(C3CC3)c2)CC1` [Example 47] cannot be ordered by IC50: under 0.1 µM for the first, under 0.1 µM for the second.

Compared with `CN1CCN(c2ccc(Nc3ncc(C(F)(F)F)c(N4CC5(CCCN(C)C5)C4)n3)c(C3CC3)c2)CC1` [Example 50], `CN1CCN(c2ccc(Nc3ncc(C(F)(F)F)c(NC4CCC(N5CCCC5=O)CC4)n3)c(C3CC3)c2)CC1` (stereo not shown) [Example 52] is lower in IC50: 0.1 to 1 µM for the first, under 0.1 µM for the second. The second is the more potent here.

What follows are compounds tested on ATG13 phosphorylation level in MIA PaCa-2 cells (assay: Inhibition of ATG13 phosphorylation level in MIA PaCa-2 cells (pATG13 ELISA)). Conditions: Homo sapiens, Torin1 100 nM, 24 h incubation, Phospho-Atg13 (ser355).
Format: cell-based
Experimental: The inhibitory effect of the compound of the present disclosure on ULK1 was evaluated by testing the inhibitory effect of the compound of the present disclosure on ATG13 phosphorylation level in MIA PaCa-2 cells.
MIA PaCa-2 cells (ATCC, CRM-CRL-1420) were cultured in a complete medium, namely, a DMEM medium (Gibco, 11965-092) containing 10% fetal bovine serum (Corning, 35-081-CV), 2.5% horse serum (Gibco, 16050-122) and 1% double antibody (Gibco, 15140-122). The experiments were performed according to the requirements of the kit (Cell Signaling Technology, 17208C).
Cell plating: MIA PaCa-2 at 80% growth confluence were digested, diluted with the complete medium, and added to a 96-well cell culture plate (Costar, 3596) at 20,000 cells per well, with a volume of 90 μL.
Compound incubation: 5 μL of Torin1 and 5 μL of a serially diluted compound were added to each well so that the highest concentration of the compound in the reaction system was 10 μM. 5-fold serial dilution with 8 concentrations was performed, and the final concentration of Torin1 was 100 nM. The DMSO content in the system was 0.1%. The reaction plate was placed in an incubator at 37° C. in 5% CO2, and was incubated for 24 h. 10 μL of Torin1 was added to the negative control wells (NC) to a final concentration of 100 nM, with a DMSO content of 0.1%.
Reaction detection: After the incubation was completed, the cell plate was washed with a pre-cooled DPBS (Corning, 21-031-CVC) to wash away the compound and medium. 50 μL of pre-cooled cell lysis solution was added to each well, incubated on ice for 10 min. The cell plate was centrifuged, and the supernatant was transferred to an ELISA reaction plate. Simultaneously, 50 μL of Phospho-Atg13 (ser355) rabbit detection antibody was added, followed by incubation at room temperature under shaking for 60 min. After the incubation was completed, the reaction plate was washed with a washing solution for 4 times. 100 μL of TMB substrate was added for color development reaction, followed by incubation under shaded conditions with shaking for 15 min. Finally, 100 μL of stop solution was added to each well. The reaction was terminated by shaking for 10 s, and the absorbance value at 450 nm and 560 nm were collected within 10 min using Envision (Perkin Elmer, EnVision 2105).
The inhibition ratio was calculated by subtracting the absorbance value at […] from the absorbance value at 450 nm for each well. The inhibition ratio formula is as follows: inhibition ratio=(sample signal value−negative control signal value)/(positive control signal value -negative control signal value)×100%.
The dose-effect curve was fitted using the log (inhibitor) vs. response -Variable slope of Graphpad Prism8, thereby affording the IC50 value of each compound for inhibiting ATG13 phosphorylation level.

`CN1CCN(c2ccc(Nc3ncc(C(F)(F)F)c(N4CC5(CCN(C)C5)C4)n3)c(C3CC3)c2)CC1` [Example 25] gave an IC50 of 0.1 to 1 µM.
